{"source": "patent US20260185056A1", "about": "“TRIPLE TISSUE CULTURE FUSION” (IMBA - INSTITUT FÜR MOLEKULARE BIOTECHNOLOGIE GMBH, priority 2022, published 2026)", "type_in_all_cases": "cell-based, human", "key": {"[1]": {"tested_on": "VM, striatal and cortical neurons of fused organoids", "assay": "Chronic cocaine treatment of fused organoids: GCAMP6S calcium imaging", "settings": "for calcium event frequency: VM, striatal and cortical patterned neurons", "method": "(§1) A, Schematic for the treatment of fused organoids with cocaine. […] Functional, morphological and transcriptional analysis was performed on day 130. B, Representative images of dopaminergic (TH^+) axons in striatal and cortical tissue in control, chronic and withdrawal fused organoids. C, Schematic for the extraction of varicosity density and varicosity diameter in dopaminergic axons. D, Quantifications of TH^+ varicosity density in striatal and cortical tissue. N=6-8 organoids per condition, 39-49 axons. E, Measurement of varicosity diameter (axon average) in striatal and cortical tissue. N=6-8 organoids, 36-47 axons per condition and 1055|1552|1347 (striatal) and 923|1063|1340 (cortical) boutons measured. F, Schematic of the parameters' frequency and duration from GCAMP traces after extraction with CaImAn. G-H, fused organoids with GCAMP6S expression in either VM, striatal or cortical tissue were recorded on day 130 in control, chronic and withdrawal conditions (10-21 organoids per condition). […] H, Analysis of calcium event frequency of striatal (n=248|245|680) and cortical (175|936|885) neurons in control, chronic and withdrawal conditions. I-J, Volcano plot comparing bulk RNAseq data of day 130 forebrain organoids chronic versus control (I) and withdrawal versus control (J) (n=6-9 organoids of 2-3 batches). […] Samples were analyzed with one-way ANOVA followed by unpaired Mann-Whitney test.\n(§2) A, Representative 130 day old GCAMP recordings of fused organoids with Syn-GCAMP expression either in the cortical, or striatal, or VM tissue in control (left), chronic (middle) and withdrawal (right) condition. […] D, Analysis of calcium event frequency of VM (n=100|278|115) neurons in control, chronic and withdrawal conditions. […] Samples were analyzed with one-way ANOVA followed by unpaired Mann-Whitney test (C, D). E-F, Volcano plots of differentially expressed genes in VM tissue in chronic versus control I and withdrawal versus control (F). G-I, GSEA analysis of three GO terms associated with neural circuit formation (Dendrite Development, Axon Development and Synapse Organization) in forebrain chronic vs control (top) and forebrain withdrawal versus control (bottom).\nOrganoids were grown until […]. GCAMP was recorded using an Olympus Spinning Disk (see Microscopy section). In brief, 20× magnification and an exposure time of 65 ms per frame (continuous recording) were used for up to 6.5 min of continuous recording. For trace extraction, recordings were scaled down from 2048×2048 to 512×512 pixels. Trace extraction was performed using the opensource software package CaImAn (Flatiron Institute).\n(§3) Here, we used the neural multi-tissue organoids to test the effects of cocaine on the establishment of the dopaminergic system. Cocaine is a dopamine reuptake inhibitor, which binds to the dopamine transporter (DAT) and inhibits the reuptake of dopamine after release and thus increases the available levels of dopamine to target cells. While the effects of cocaine on the adult brain are relatively well understood, not much is known about the effects of cocaine on the development of the CNS-predominantly because of the lack of an effective model system. We tested the effects of chronic cocaine exposure and its potential effect on the establishment of the dopaminergic system. […] We chronically treated fused organoids with cocaine from day 40 until day 130 and generated a withdrawal condition which was not exposed to cocaine from day 105 onwards (FIG. 17A).\nIn vivo, cocaine exposure has been associated with changes in neural activity."}, "[2]": {"tested_on": "dopaminergic (TH+) axons in striatal and cortical tissue of fused organoids", "assay": "Chronic cocaine treatment of fused organoids: TH+ varicosity density and diameter", "settings": "for density of TH+ varicosities on axons / diameter of TH+ varicosities: chronic 0.7 μM, vs control; for density of TH+ varicosities on axons: 1 h every 3 days, day 40-130; for diameter of TH+ varicosities: day 130", "method": "A, Schematic for the treatment of fused organoids with cocaine. […] Functional, morphological and transcriptional analysis was performed on day 130. B, Representative images of dopaminergic (TH^+) axons in striatal and cortical tissue in control, chronic and withdrawal fused organoids. C, Schematic for the extraction of varicosity density and varicosity diameter in dopaminergic axons. D, Quantifications of TH^+ varicosity density in striatal and cortical tissue. N=6-8 organoids per condition, 39-49 axons. E, Measurement of varicosity diameter (axon average) in striatal and cortical tissue. N=6-8 organoids, 36-47 axons per condition and 1055|1552|1347 (striatal) and 923|1063|1340 (cortical) boutons measured. F, Schematic of the parameters' frequency and duration from GCAMP traces after extraction with CaImAn. G-H, fused organoids with GCAMP6S expression in either VM, striatal or cortical tissue were recorded on day 130 in control, chronic and withdrawal conditions (10-21 organoids per condition). […] 1776|2144|4254 individual calcium events (striatal) and 1437|6931|8000 individual calcium events (cortical). H, Analysis of calcium event frequency of striatal (n=248|245|680) and cortical (175|936|885) neurons in control, chronic and withdrawal conditions. I-J, Volcano plot comparing bulk RNAseq data of day 130 forebrain organoids chronic versus control (I) and withdrawal versus control (J) (n=6-9 organoids of 2-3 batches). […] Samples were analyzed with one-way ANOVA followed by unpaired Mann-Whitney test.\n2Eci tissue clearing was performed as previously described (Masselink & Reumann, et al., Development 146, 2019). In brief, organoids were fixed with 4% formaldehyde in PBS for 4 h at RT. For 3D immunohistochemistry, PBS-TxDB was prepared: 10×PBS, 5% BSA and 2% TX100 were pre-mixed and filled up with distilled water to achieve approx. 70% of aimed volume (e.g. for 11 of PBS-TxDB, 100 ml of 10×PBS, 50 g BSA and 20 ml TX100 were used and filled up to 700 ml with distilled water. 20% DMSO was then added slowly under heavy stirring-rapid addition of DMSO may result in irreversible BSA aggregation. The solution was filled up to 100% with distilled water and sterile filtered. PBS-TxDB is stable at RT for at least several weeks, or at 4° C. for up to a year.\nOrganoids were blotted/permeabilized on a rotor or shaking plate for 1-2 days in 10 ml PBS-TxDB at RT. Organoids (dependent on the size, between 3 and 6) were then transferred into 2 ml Eppendorf tubes containing primary antibody solution in PBS-TxDB (between 500 μl to 1 ml) and transferred to a rotor or shaking plate for 5 days. Organoids were then washed in 10 ml PBS-TxDB for 2 days (1× rinse, 3×PBS-TxDB exchange) and the same steps were repeated for secondaries. After washing off the residual secondaries, organoids were washed in PBS for 1 h and then fixed in 4% Formaldehyde solution for 30 min-2 h. Organoids were then ready to be dehydrated in a 1-Propanol gradient (30%, 50%, 70%, 100%, 100%, 4-8 h per step). As no endogenous fluorescence had to be maintained, pH adjustment of the 1-Propanol was skipped. After dehydration, organoids were transferred into Ethyl Cinnamate and were ready for imaging as soon as completely transparent (1-3 h or overnight at RT). Cleared organoids were stored at room temperature and should not be transferred to 4° C., as Ethyl Cinnamate crystallizes out at lower temperatures. […]"}, "[3]": {"tested_on": "forebrain and VM tissue of fused organoids", "assay": "Chronic cocaine treatment of fused organoids: bulk RNAseq", "settings": "for transcriptional change (bulk RNAseq): day 130", "method": "as §1, §2, §3"}, "[4]": {"tested_on": "ventral midbrain organoids", "assay": "CHIR dose curve (Wnt activation) for midbrain induction in ventral midbrain organoids (qPCR OTX2, FOXA2, TH)", "method": "FIG. 2A-D: qPCR analysis of markers of ventral midbrain of the dose curving experiment to generate ventral midbrain organoids. Two separate dose curving experiments were performed, where first the correct dosage of sonic hedgehog activation was tested (FIG. 2A, floor plate marker FOXA2). Secondly, we performed qPCR to test for appropriate concentrations of posteriorization using Wnt activation. Dopaminergic neurons are born in the very ventral floor plate of the posterior midbrain, next to the midbrain-hindbrain boundary, thus the Forebrain and Midbrain marker OTX2 should still be expressed, whereas the hindbrain is OTX2 negative. We found a concentration of 0.8-1 μM sufficient to introduce midbrain (FIG. 2B), while the floor plate marker FOXA2 was still expressed (FIG. 2C). qPCR for the dopaminergic marker TH (Tyrosine hydroxylase, the rate-limiting enzyme for dopamine synthesis) confirmed this concentration of Wnt activation, with a sharp drop of TH expression starting at 1.2 μM CHIR (FIG. 2D).\nAll qPCR data are relative to the expression of TBP.\nFor each condition, 6-8 organoids were collected at indicated time points into 2 ml RNAse-free tubes. RNA was extracted using the Rneasy mini kit (Qiagen). […]\nQuantification was performed in excel by calculating ΔCt relative to TBP. […]"}}, "note": "Where “and” joins values, the source holds several entries; their conditions need not be identical. Equal values may be shown once. Where a name gives a salt, the structure may show the parent alone.", "data": [{"smiles": "COC(=O)[C@H]1[C@@H](OC(=O)c2ccccc2)C[C@@H]2CC[C@H]1N2C", "note": "[cocaine hydrochloride]", "values": [{"measurement": "calcium event duration", "setting": "[1]; VM neurons, chronic condition, day 130", "result": "decrease"}, {"measurement": "calcium event duration", "setting": "[1]; VM neurons, cocaine withdrawal", "result": "without recovery"}, {"measurement": "calcium event frequency", "setting": "[1]; cocaine treated vs control", "result": "fewer events per minute"}, {"measurement": "calcium event frequency", "setting": "[1]; withdrawal condition", "result": "only partially recover"}, {"measurement": "calcium event duration", "setting": "[1]; cortical patterned neurons, chronic condition, day 130, vs control, hydrochloride", "result": "increase"}, {"measurement": "calcium event duration", "setting": "[1]; cortical patterned neurons, chronic condition, day 130, vs control, listed as cocaine, hydrochloride", "result": "significant increase"}, {"measurement": "calcium event duration", "setting": "[1]; striatal neurons, chronic condition, day 130, vs control, hydrochloride", "result": "significant decrease"}, {"measurement": "calcium event duration", "setting": "[1]; striatal neurons, chronic condition, day 130, vs control, listed as cocaine, hydrochloride", "result": "significantly shorter"}, {"measurement": "calcium event duration", "setting": "[1]; withdrawal condition, striatal and cortical neurons", "result": "not significantly different from the chronic condition"}, {"measurement": "diameter of TH+ varicosities, rescue by withdrawal", "setting": "[2]; 25-day long withdrawal, striatal and cortical tissue", "result": "failed to rescue"}, {"measurement": "density of TH+ varicosities on axons", "setting": "[2]; cortical tissue", "result": "significantly increased"}, {"measurement": "diameter of TH+ varicosities", "setting": "[2]; cortical tissue", "result": "significantly reduced"}, {"measurement": "density of TH+ varicosities on axons", "setting": "[2]; striatal tissue", "result": "significantly increased"}, {"measurement": "diameter of TH+ varicosities", "setting": "[2]; striatal tissue", "result": "significantly reduced"}, {"measurement": "transcriptional change (bulk RNAseq)", "setting": "[3]; VM tissue, chronic and withdrawal vs control", "result": "only little transcriptional change"}, {"measurement": "genes associated with interferon response (such as IFITM2 and IFITM3)", "setting": "[3]; forebrain, chronic and withdrawal conditions", "result": "upregulated"}, {"measurement": "transcriptional change (bulk RNAseq)", "setting": "[3]; forebrain, chronic and withdrawal conditions vs control", "result": "a broad list of genes was differentially expressed"}, {"measurement": "genes associated with neural circuit formation (GO term analysis)", "setting": "[3]; forebrain, chronic and withdrawal vs control", "result": "downregulation"}, {"measurement": "GSEA of GO terms dendrite development, axon development and synapse organization", "setting": "[3]; forebrain, chronic exposure and withdrawal vs control", "result": "consistently and significantly downregulated"}]}, {"smiles": "Cc1cnc(-c2cnc(NCCNc3ccc(C#N)cn3)nc2-c2ccc(Cl)cc2Cl)[nH]1", "note": "[CHIR, 6-[[2-[[4-(2,4-dichlorophenyl)-5-(5-methyl-1H-imidazol-2-yl)-2-pyrimidinyl]amino]ethyl]amino]-3-pyridinecarbonitrile]", "values": [{"measurement": "concentration sufficient for midbrain induction", "setting": "[4]; OTX2, FOXA2 and TH still expressed (qPCR)", "result": "0.8 to 1 µM and 1 µM"}, {"measurement": "concentration at which sharp drop of TH expression starts", "setting": "[4]; qPCR, relative to TBP", "result": "≥ 1.2", "unit": "µM"}]}]}
